Measured values taken from PubChem BioAssay AID791 (The Scripps Research Institute Molecular Screening Center, 2007).
Active and inactive are the calls of the source.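 Rule for the calls: active = IC50 at or below 10 µM; inactive = IC50 above 10 µM.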

Target: Rho-associated protein kinase 2 (Homo sapiens) (UniProt O75116)
Assay: ROCK2 inhibitor IC50 determination, dose response, biochemical, Kinase-Glo luminescence, S6 peptide, 384-well (AID 791)
Conditions: recombinant ROCK2, S6 peptide

Rho-associated protein kinase 2 (Homo sapiens), sequence (O75116 whole entry, looked up): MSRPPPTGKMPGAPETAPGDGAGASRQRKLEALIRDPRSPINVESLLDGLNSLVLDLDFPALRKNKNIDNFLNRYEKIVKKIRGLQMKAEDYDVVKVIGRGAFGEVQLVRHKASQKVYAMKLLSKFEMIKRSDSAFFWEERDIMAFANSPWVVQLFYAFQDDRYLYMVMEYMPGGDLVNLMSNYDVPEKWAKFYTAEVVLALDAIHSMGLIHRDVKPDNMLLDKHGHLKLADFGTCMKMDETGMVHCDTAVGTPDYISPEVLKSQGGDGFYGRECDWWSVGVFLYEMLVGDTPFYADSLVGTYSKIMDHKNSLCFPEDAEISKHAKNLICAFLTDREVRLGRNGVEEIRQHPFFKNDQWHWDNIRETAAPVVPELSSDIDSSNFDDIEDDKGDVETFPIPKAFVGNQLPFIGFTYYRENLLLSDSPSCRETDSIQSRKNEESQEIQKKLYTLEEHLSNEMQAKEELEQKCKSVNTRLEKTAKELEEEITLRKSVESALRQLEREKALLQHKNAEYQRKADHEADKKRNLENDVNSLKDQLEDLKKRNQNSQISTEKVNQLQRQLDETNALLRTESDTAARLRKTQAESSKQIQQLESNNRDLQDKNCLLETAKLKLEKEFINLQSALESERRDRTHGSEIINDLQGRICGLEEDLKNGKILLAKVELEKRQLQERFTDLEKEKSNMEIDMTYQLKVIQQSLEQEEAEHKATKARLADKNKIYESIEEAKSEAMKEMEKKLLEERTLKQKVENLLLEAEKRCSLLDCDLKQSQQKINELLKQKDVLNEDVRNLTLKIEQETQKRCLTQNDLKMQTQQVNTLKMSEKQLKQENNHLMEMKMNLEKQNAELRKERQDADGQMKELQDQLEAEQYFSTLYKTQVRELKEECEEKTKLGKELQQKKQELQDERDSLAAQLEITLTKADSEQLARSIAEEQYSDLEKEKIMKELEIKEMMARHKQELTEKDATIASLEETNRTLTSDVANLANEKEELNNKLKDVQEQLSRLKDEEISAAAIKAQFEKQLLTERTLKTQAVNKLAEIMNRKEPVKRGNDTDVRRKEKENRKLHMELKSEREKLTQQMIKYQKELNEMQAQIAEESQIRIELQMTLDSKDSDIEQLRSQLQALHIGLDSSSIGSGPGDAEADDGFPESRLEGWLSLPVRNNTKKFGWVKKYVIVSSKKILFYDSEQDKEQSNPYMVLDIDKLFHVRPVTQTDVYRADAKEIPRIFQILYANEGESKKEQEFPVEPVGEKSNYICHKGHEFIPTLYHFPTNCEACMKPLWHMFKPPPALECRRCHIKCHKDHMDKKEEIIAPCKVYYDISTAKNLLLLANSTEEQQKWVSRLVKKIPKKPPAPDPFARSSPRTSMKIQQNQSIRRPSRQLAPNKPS

| Compound | IC50 |
| --- | --- |
| CC(C)[C@@H](O)C(=O)N1CCN(c2ccc3[nH]ncc3c2)CC1 | 3910 nM |
| NC(C(=O)N1CCC(Nc2ccc3[nH]ncc3c2)CC1)c1cccc(Cl)c1 (stereo not drawn) | 148 nM |
| N[C@@H](Cc1ccccc1)C(=O)N1CCC(Nc2ccc3[nH]ncc3c2)CC1 | 468 nM |
| O=C([C@H](O)c1cccc(Cl)c1)N1CCC(Nc2ccc3[nH]ncc3c2)CC1 | 350 nM |
| C[C@H](N)C(=O)N1CCC(Nc2ccc3[nH]ncc3c2)CC1 | 5740 nM |
| C[C@H](O)C(=O)N1CCC(Nc2ccc3[nH]ncc3c2)CC1 | > 10000 nM (inactive) |
| NC(C(=O)N1CCC(Nc2ccc3[nH]ncc3c2)CC1)c1ccc(Br)cc1 (stereo not drawn) | 1.26 nM |
| N[C@H](C(=O)N1CCC(Nc2ccc3[nH]ncc3c2)CC1)c1ccccc1 | 835 nM |
| O=C([C@@H]1Cc2ccccc2CN1)N1CCN(c2ccc3[nH]ncc3c2)CC1 | 5320 nM |
| O=C(C(O)c1ccc(Br)cc1)N1CCC(Nc2ccc3[nH]ncc3c2)CC1 (stereo not drawn) | 8.87 nM |
| C[C@@H](N)C(=O)N1CCN(c2ccc3[nH]ncc3c2)CC1 | > 10600 nM (inactive) |
| O=C([C@@H](O)c1ccccc1Cl)N1CCC(Nc2ccc3[nH]ncc3c2)CC1 | 1700 nM |

Second part, the molecule after the results:

| IC50 | Compound |
| --- | --- |
| 379 nM | N[C@H](Cc1ccccc1)C(=O)N1CCN(c2ccc3[nH]ncc3c2)CC1 |
| 1200 nM | O=C([C@H](O)c1ccccc1Cl)N1CCN(c2ccc3[nH]ncc3c2)CC1 |
| 188 nM | NC(C(=O)N1CCN(c2ccc3[nH]ncc3c2)CC1)c1ccc(Cl)cc1 (stereo not drawn) |
| 855 nM | O=C([C@H](O)c1ccccc1)N1CCN(c2ccc3[nH]ncc3c2)CC1 |
| 1050 nM | O=C([C@H](O)c1cccc(Cl)c1)N1CCN(c2ccc3[nH]ncc3c2)CC1 |
| 7.86 nM | O=C(C(O)c1ccc(Br)cc1)N1CCN(c2ccc3[nH]ncc3c2)CC1 (stereo not drawn) |
| 756 nM | NC(C(=O)N1CCN(c2ccc3[nH]ncc3c2)CC1)c1cccc(Cl)c1 (stereo not drawn) |
| 8.97 nM | NC(C(=O)N1CCN(c2ccc3[nH]ncc3c2)CC1)c1ccc(Br)cc1 (stereo not drawn) |
| 774 nM | O=C([C@H](O)c1ccccc1)N1CCC(Nc2ccc3[nH]ncc3c2)CC1 |
| 1400 nM | N[C@@H](C(=O)N1CCN(c2ccc3[nH]ncc3c2)CC1)c1ccccc1 |
| 186 nM | O=C(C(O)c1ccc(Cl)cc1)N1CCN(c2ccc3[nH]ncc3c2)CC1 (stereo not drawn) |
